Experimental data as given in patent US9359378B2, “Substituted oxazolo[3,4-a]pyrazines as pharmaceutcals” (BIOLAB SANUS FARMACÊUTICA LTDA., priority 2014, dated 2016).

Tests used:
Format in all cases: biochemical
Details in all cases: human recombinant enzyme (Sf9); FIGS. 14 and 15; test concentration not given
PDE1B = target: T1, PDE1B (Homo sapiens, UniProt Q01064); test: PDE1B enzyme inhibition (HTRF, cGMP substrate)
T1 construct: host or cells: Sf9
Method: The effects of BL-230 and BL-236 compounds on the activity of PDE1B human enzymes were quantified by measuring the production of guanosine 5′-monophosphate (5′GMP) from cyclic guanosine monophosphate (cGMP), using human recombinant enzyme expressed in Sf9 cells, and the detection method was by using HTRF® (Homogeneous Time Resolved Fluorescence Technology).
The test compound, the reference compound or the water (control) were mixed with 0.07 U from the enzyme PDE1B in a buffer containing 44.4 mM Tris-hydroxymethyl aminomethane hydrochloride (Tris-HCl), 5.28 mM magnesium chloride (MgCl2), 0.88 mM calcium chloride (CaCl2), 2.64 mM dithiothreitol (DTT) and 0.198 U of calmodulin and 0.044% polysorbate 20 (Tween® 20) (pH 7.8). […] The fluorescence acceptor (Dye2 labeled cGMP) and fluorescence donor (anti-cGMP antibody labeled with europium cryptate) were added in the presence of 1 mM 3-isobutyl-1-methylxanthine (IBMX). After 60 minutes, the transfer of fluorescence corresponding to the amount of residual cGMP was measured at λex=337 nm, λem=620 nm and λem=665 nm using a microplate reader (RubyStar, BMG). The enzyme activity was determined by the signal division measured at 665 nm, by the measured signal at 620 nm (right). The results were expressed as a inhibition percentage of the control enzyme activity. […]

PDE3B = target: T2, PDE3B (Homo sapiens, UniProt Q13370); test: PDE3B enzyme inhibition (HTRF, cAMP substrate)
T2 construct: host or cells: Sf9
Method: The effects of compounds BL-230 and BL-236 on human PDE3B enzyme activity was quantified by measuring the production of 5′AMP from CAMP using human recombinant enzyme expressed in Sf9 cells and the detection method was by using HTRF®.
The test compound, the reference compound or water (control) were mixed with 0.7 U of the enzyme PDE3B in a buffer containing 50 mM Tris-HCl, 6 mM MgCl2, 3 mM DTT and 0.05% Tween® 20 (pH 7.8). Then, the reaction was initiated by addition of 40 nM of cAMP substrate and the mixture was incubated for 30 minutes at 22° C. For basal control measurements, the enzyme was omitted from the reaction mixture. The fluorescence acceptor (Dye2 labeled cAMP) and fluorescence donor (anti-cAMP antibody labeled with europium cryptate) were added in the presence of 1 mM IBMX. After 60 minutes, the transfer of fluorescence corresponding to the amount of residual cAMP was measured at λex=337 nm, λem=620 nm and λem=665 nm using a microplate reader (RubyStar, BMG). The enzyme activity was determined by the signal division measured at 665 nm, by the signal measured at 620 nm (right). The results were expressed as an inhibition percentage of the control enzyme activity. The standard inhibitory reference compound milrinone was used, which was tested in each experiment at several concentrations to obtain an inhibition curve from which its IC50 value was calculated. […]

PDE4D2 = target: T3, PDE4D2 (Homo sapiens, UniProt Q08499); test: PDE4D2 enzyme inhibition (HTRF, cAMP substrate)
T3 construct: host or cells: Sf9
Method: The effects of the BL-230 and BL-236 compounds on the activity of the human PDE4D2 enzyme were quantified by measuring the production from 5′ AMP cAMP using a human recombinant enzyme expressed in Sf9 cells and the method of detection used was the HTRF®.
The test compound, the reference compound or the water (control) were mixed with 0.75 U of PDE4D2 in a saline buffer solution balanced with Hanks (HBSS) (Invitrogen) supplemented, and 1.5 mM MgCl2, 0.1% bovine serum albumin (BSA). Then, the reaction was initiated by addition of 40 nM of cAMP substrate and the mixture is incubated for 15 minutes at 37° C. For basal control measurements, the enzyme was omitted from the reaction mixture. The fluorescence acceptor (Dye2 labeled cAMP) and fluorescence donor (anti-cAMP antibody labeled with europium cryptate) are added in the presence of 1 mM IBMX. After 60 minutes at room temperature, the fluorescence corresponding to the amount of transfer residual cAMP was measured at λex=337 nm, λem=620 nm and λem=665 nm using a microplate reader (Envision, Perkin Elmer). The enzyme activity was determined by the signal division measured at 665 nm, by the measured signal at 620 nm (ratio). The results were expressed as an inhibition percentage of the control enzyme activity. […]

T3 sequence (Q08499 303-809 limits assumed): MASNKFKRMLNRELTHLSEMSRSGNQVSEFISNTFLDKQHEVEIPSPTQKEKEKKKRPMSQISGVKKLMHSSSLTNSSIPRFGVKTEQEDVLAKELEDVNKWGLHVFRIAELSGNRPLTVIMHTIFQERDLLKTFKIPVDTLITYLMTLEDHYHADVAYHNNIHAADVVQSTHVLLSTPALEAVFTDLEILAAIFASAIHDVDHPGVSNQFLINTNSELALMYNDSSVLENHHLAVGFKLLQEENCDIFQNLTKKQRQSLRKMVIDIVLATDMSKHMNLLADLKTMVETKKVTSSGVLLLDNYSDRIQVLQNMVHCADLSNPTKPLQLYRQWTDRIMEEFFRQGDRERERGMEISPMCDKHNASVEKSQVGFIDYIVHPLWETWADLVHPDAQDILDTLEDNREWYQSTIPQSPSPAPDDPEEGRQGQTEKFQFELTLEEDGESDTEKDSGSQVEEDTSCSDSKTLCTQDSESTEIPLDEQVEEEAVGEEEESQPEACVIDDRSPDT
T2 sequence (Q13370 whole entry): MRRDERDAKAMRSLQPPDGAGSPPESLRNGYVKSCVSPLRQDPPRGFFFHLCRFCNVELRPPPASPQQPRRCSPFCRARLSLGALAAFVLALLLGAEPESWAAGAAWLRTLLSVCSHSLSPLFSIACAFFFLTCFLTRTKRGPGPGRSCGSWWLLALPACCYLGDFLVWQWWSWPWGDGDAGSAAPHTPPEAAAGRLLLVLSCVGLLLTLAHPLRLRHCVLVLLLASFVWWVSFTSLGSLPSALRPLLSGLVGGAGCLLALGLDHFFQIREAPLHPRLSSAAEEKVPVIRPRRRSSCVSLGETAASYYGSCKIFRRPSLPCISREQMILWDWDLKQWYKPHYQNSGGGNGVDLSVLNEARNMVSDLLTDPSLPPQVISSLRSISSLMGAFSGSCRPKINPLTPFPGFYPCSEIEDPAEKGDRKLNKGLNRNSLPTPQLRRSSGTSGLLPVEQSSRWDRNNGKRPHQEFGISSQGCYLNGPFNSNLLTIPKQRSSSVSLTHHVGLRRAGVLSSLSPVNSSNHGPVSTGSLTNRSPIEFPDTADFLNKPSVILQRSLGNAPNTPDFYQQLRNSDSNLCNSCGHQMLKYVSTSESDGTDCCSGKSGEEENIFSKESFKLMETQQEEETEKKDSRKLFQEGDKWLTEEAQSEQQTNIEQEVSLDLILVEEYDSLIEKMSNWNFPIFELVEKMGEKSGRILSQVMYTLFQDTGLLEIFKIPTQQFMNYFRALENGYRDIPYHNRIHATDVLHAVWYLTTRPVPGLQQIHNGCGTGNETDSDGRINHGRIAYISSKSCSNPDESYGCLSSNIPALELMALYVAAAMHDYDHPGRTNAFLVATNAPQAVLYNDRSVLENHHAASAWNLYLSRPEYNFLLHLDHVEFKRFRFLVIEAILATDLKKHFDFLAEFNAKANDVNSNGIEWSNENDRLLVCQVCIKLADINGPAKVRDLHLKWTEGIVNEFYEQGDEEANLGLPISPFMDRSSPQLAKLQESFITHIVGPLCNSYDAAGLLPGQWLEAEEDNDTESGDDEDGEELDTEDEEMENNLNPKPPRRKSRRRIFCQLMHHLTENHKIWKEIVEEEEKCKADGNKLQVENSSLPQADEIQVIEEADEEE

Row | SMILES | inhibition of PDE1B enzyme activity (PDE1B) | inhibition of PDE3B enzyme activity (PDE3B) | inhibition of PDE4D2 enzyme activity (PDE4D2)
1 | O=C1C2=C(c3c[nH]c4ccccc34)OC(c3ccc4c(c3)OCO4)N2C(=O)CN1CCO (stereo not drawn) [BL-230, 3-(benzo[d][1,3]dioxol-5yl)-7-(2-hydroxyethyl)-1-(1H-indol-3-yl)-6,7-dihydro-3H-oxazolo[3,4-a]pyrazine-5,8-dione] | did not inhibit | did not inhibit | 55%
2 | C[C@@H](CO)N1CC(=O)N2C(=C(c3c[nH]c4ccccc34)OC2c2ccc3c(c2)OCO3)C1=O (stereo partly drawn) [BL-236, 3-(benzo[d][1,3]dioxol-5yl)-7-((S)1-hydroxypropan-2yl)-1-(1H-indol-3-yl)-6,7-dihydro-3H-oxazolo[3,4-a]pyrazine-5,8-dione] | did not inhibit | did not inhibit | no inhibitory effect
